Assay [1] concerns the target T1, 5-hydroxytryptamine receptor 1B (Homo sapiens, UniProt P28222). The settings on record: Oryctolagus cuniculus; Saphenous vein.
Description: 5-hydroxytryptamine 1B receptor agonist potency determined in rabbit saphenous vein contraction model
For assay [2], the target named is 5-hydroxytryptamine receptor 1D (Homo sapiens, UniProt P28221). Kind of assay: In vitro binding affinity was determined towards cloned human 5-hydroxytryptamine 1D receptor using [3H]5-CT radioligand.
The target in assay [3] is T1, 5-hydroxytryptamine receptor 1B. The assay can be described thus: Effective concentration determined by measuring inhibition of forskolin-stimulated c-AMP formation at 5-hydroxytryptamine 1B receptor stably transfected in CHO cell lines. It counts as functional, cell-based.
For assay [4] the target is unchanged. Kind of assay: 5-hydroxytryptamine 1B receptor agonist potency was evaluated as effective dose that induced hypothermia in the guinea-pig upon intraperitoneal administration. It counts as functional, organism-based. The settings on record: Cavia porcellus; target entry is the homologue from another species.
For assay [5] the target is unchanged. The assay can be described thus: In vitro binding affinity was determined towards cloned human 5-hydroxytryptamine 1B receptor using [3H]5-CT radioligand.
Assay [6] has as its target T2, 5-hydroxytryptamine receptor 1A (Homo sapiens, UniProt P08908).
T2 sequence (P08908 whole entry): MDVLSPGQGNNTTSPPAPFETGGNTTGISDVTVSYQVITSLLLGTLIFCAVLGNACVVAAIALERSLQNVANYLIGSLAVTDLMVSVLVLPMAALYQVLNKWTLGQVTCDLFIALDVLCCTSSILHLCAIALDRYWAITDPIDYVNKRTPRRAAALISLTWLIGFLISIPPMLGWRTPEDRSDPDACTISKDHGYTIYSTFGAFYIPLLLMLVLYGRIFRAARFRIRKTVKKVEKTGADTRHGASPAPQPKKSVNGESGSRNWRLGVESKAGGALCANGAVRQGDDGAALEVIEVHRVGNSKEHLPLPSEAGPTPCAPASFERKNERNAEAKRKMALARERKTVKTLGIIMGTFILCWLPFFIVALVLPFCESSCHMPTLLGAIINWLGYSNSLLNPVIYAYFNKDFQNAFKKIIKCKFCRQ
Kind of assay: In vitro binding affinity was determined towards cloned human 5-hydroxytryptamine 1A receptor using [3H]8-OH-DPAT radioligand.

Assay [7] concerns the target T1, 5-hydroxytryptamine receptor 1B. Kind of assay: 5-HT1B agonist potency was evaluated as effective dose that induced hypothermia in the guinea-pig upon intraperitoneal administration. The settings on record: Cavia porcellus; target entry is the homologue from another species. Format: functional, organism-based.

T1 sequence (P28222 whole entry): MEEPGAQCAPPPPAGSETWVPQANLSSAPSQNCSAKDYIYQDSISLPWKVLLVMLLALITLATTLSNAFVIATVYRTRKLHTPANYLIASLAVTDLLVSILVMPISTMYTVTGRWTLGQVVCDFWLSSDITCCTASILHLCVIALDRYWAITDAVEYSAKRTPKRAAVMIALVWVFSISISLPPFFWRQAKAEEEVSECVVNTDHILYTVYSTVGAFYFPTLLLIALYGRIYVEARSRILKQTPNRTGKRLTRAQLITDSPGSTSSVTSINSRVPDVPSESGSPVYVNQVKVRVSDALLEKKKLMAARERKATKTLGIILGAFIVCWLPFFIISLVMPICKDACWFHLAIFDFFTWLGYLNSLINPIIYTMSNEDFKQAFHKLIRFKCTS
Sequence of 5-hydroxytryptamine receptor 1D (P28221 whole entry): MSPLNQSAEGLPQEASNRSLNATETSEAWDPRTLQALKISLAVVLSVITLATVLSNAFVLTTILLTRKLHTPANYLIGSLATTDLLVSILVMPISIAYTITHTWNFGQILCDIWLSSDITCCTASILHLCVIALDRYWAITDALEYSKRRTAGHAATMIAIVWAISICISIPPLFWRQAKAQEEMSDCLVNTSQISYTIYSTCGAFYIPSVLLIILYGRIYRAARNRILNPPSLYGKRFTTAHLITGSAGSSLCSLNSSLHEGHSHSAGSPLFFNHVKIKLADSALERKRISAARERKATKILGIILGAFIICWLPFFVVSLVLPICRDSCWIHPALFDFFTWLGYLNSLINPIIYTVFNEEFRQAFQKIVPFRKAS

Consider `CN(C)CCc1c[nH]c2ccc(CS(=O)(=O)N(C)Cc3ccc(CN(C)S(=O)(=O)Cc4ccc5[nH]cc(CCN(C)C)c5c4)cc3)cc12`, for which the pD2 in assay [1] came to 6.6. In addition, the figures for the Ki in assay [2], in assay [5] and in assay [6] were 0.89 nM, 0.64 nM and 17.7 nM, respectively. The same compound returned an EC50 in assay [3] of 0.58 nM. For the same compound, in assay [4], the 50% effect level (ED50) was put at a dose of 1.3 mg/kg.
In assay [1], `CN(C)CCc1c[nH]c2ccc(C[C@H]3COC(=O)N3)cc12` [ZOLMITRIPTAN] displayed a pD2 of 6.2. For the same compound, the Ki in assay [2] is 0.76 nM; in assay [5], 4.2 nM. The compound further had an EC50 in assay [3] of 15.7 nM. For the same compound, in assay [7], the 50% effect level (ED50) was put at a dose of 3.2 mg/kg.

What is called Ki is a measure of affinity in units of concentration, obtained from inhibition or displacement. The low end stands for a stronger hold on the target, the high end for a looser hold on the target. What is called EC50 is the concentration at which the effect is half-maximal. The low end stands for greater potency, the high end for weaker potency. For orientation: ED50 means the dose that gives a 50% effect, or the effect in half of the subjects. A lower ED50 goes with greater potency.

Values taken from ChEMBL document CHEMBL1131654 (Bioorg Med Chem Lett, 1998).
